Results taken from ChEMBL document CHEMBL1136364, “Synthesis and antimalarial activity of 2-methoxyprop-2-yl peroxides derivatives” (Bioorg Med Chem Lett, 2003).

What follows are molecules tested on Plasmodium falciparum (assay: In vitro antimalarial activity against Plasmodium falciparum FCR3).
Format: functional, organism-based

How did the IC50 turn out when `CCOC(=O)CCCOOC(C)(C)OC` was run?
The IC50 was 6950 nM.

How did the IC50 turn out when `COC(C)(C)OOCCC(C)C` was run?
Its IC50 is 1650 nM.

`CCCCCCOOC(C)(C)OC` was tested. Which IC50 did it give?
The IC50 was 1550 nM.

For `CCCCCCCCCCCCCCCCCCOOC(C)(C)OC`, which IC50 is on record?
The IC50 was 1330 nM.

With `CCCCCCCCCCCCOOC(C)(C)OC` as the molecule, how does the IC50 read?
Its IC50 is 670 nM.

With `CCCCCCCCCCCCCCCCOOC(C)(C)OC` as the molecule, how does the IC50 read?
The IC50 was 440 nM.

For `COCCOOC(C)(C)OC`, which IC50 is on record?
The IC50 was 3200 nM.

`COC(C)(C)OOCCCOc1ccccc1` was tested. Which IC50 did it give?
Its IC50 is 870 nM.

`COC(C)(C)OOCCCCC1=CC[C@H]2C[C@@H]1C2(C)C` was tested. Which IC50 did it give?
The IC50 was 480 nM.

`COC(C)(C)OOCCc1ccccc1` was tested. Which IC50 did it give?
Its IC50 is 520 nM.

How did the IC50 turn out when `CCCCCCCCOOC(C)(C)OC` was run?
Its IC50 is 2600 nM.

`COC(C)(C)OOCCCC#N` was tested. Which IC50 did it give?
The IC50 was 12800 nM.

Which IC50 does the source give for `COC(C)(C)OOCCC1=CC[C@H]2C[C@@H]1C2(C)C` here?
Its IC50 is 370 nM.

`COC(C)(C)OOCCCc1ccccc1` was tested. Which IC50 did it give?
Its IC50 is 660 nM.

For `COC(C)(C)OOCCCC1=CC[C@H]2C[C@@H]1C2(C)C`, which IC50 is on record?
The IC50 was 600 nM.

Which IC50 does the source give for `CCCCCCCOOC(C)(C)OC` here?
Its IC50 is 800 nM.

`CO[C@H]1O[C@@H]2O[C@@]3(C)CC[C@H]4[C@H](C)CC[C@@H]([C@H]1C)[C@@]24OO3` [ARTEMETHER] was tested. Which IC50 did it give?
The IC50 was 14 nM.

With `C[C@@H]1CC[C@H]2[C@@H](C)C(=O)O[C@@H]3O[C@@]4(C)CC[C@@H]1[C@]32OO4` [ARTEMISININ] as the molecule, how does the IC50 read?
Its IC50 is 55 nM.
